Experimental data published in PMC6332318, “Synthetic Development of New 3-(4-Arylmethylamino)butyl-5-arylidene-rhodanines under Microwave Irradiation and Their Effects on Tumor Cell Lines and against Protein Kinases” (Molecules, 2015).
pIC50: −log10 of the molar value.

How the values were obtained:
diploid skin fibroblasts = assay: in vitro inhibition of cell proliferation / survival assay, normal cells control; type: cell-based; details: Skin fibroblast, Fibroblasts; for viability at 25 µM: measured at 25 μM after 48 h, single dose, triplicate, read-out: % of Survival
Method: (§1) As an initial effort to investigate their in vitro bioactivity, the new synthesized 3-(4-arylmethylamino)butyl-2-thioxo-1,3-thiazolidine-4-one 9a–n and also their precursors 6a–f were evaluated for their in vitro inhibition of cell proliferation. For this study, we used a panel of seven representative tumoral cell lines, namely HuH7 D12 (differential hepato cellular carcinoma), Caco 2 (differentiating colorectal adenocarcinoma), MDA-MBD231 ([…]), HCT 116 (actively proliferating colorectal adenocarcinoma), PC3 (prostate carcinoma), NCI-H727 (lung carcinoma), HaCat keratinocyte and, diploid skin fibroblasts as normal cell lines for control.
(§2) Skin diploid fibroblastic cells were provided by BIOPREDIC International Company (Rennes, France). Caco2 (Ref ECACC: 86010202), Huh-7D12 (Ref ECACC: 01042712), MDA-MB-231 (Ref ECACC: 92020424), HCT-116 (Ref ECACC: 91091005), PC3 (Ref ECACC: 90112714), NCI-H727 (Ref ECACC: 94060303) cell lines were obtained from the ECACC collection and HaCaT (from Cell Lines Service, Eppelheim, Germany). Cells were grown according to ECACC recommendations. The toxicity test of the compounds on these cells was as follows: 2 × 10^3 cells for HCT-116 cells or 4 × 10^3 for the other cells were seeded in 96 multiwell plates in triplicate and left for 24 h for attachment, spreading and growing. Then, cells were exposed for 48 h to increasing concentrations of the compounds, ranging from 0.1 to 25 μM in a final volume of 120 μL of culture medium. Cells were fixed in cooled solution of 90% ethanol/5% acetic acid, nuclei were stained with Hoechst 3342 (Sigma) and counted using automated imaging analysis (Cellomics Arrayscan VTI/HCS Reader, Thermo/Scientific, Waltham, MA, USA). The IC50 were graphically determined.

[1] = tested on: Caco 2 cells (differentiating colorectal adenocarcinoma); assay: in vitro inhibition of cell proliferation / survival assay; type: cell-based; details: Homo sapiens; for viability at 25 µM: measured at 25 μM after 48 h, single dose, triplicate
Method: as §1, §2

MDA-MB231 cells = assay: as above; type: cell-based; details: Homo sapiens; for viability at 25 µM: MDA-MB-231, measured at 25 μM after 48 h, single dose, triplicate
Method: as §1, §2

[2] = tested on: Huh7 D12 cells (differential hepato cellular carcinoma); assay: as above; type: cell-based; details: for viability at 25 µM: Huh-7D12, measured at 25 μM after 48 h, single dose, triplicate
Method: as §1, §2

[3] = tested on: PC3 cells (prostate carcinoma); assay: as above; type: cell-based; details: Homo sapiens; for viability at 25 µM: PC-3, measured at 25 μM after 48 h, single dose, triplicate
Method: as §1, §2

[4] = tested on: HCT 116 cells (actively proliferating colorectal adenocarcinoma); assay: as above; type: cell-based; details: Homo sapiens; for viability at 25 µM: measured at 25 μM after 48 h, single dose, triplicate
Method: as §1, §2

[5] = tested on: NCI-H727 cells (lung carcinoma); assay: as above; type: cell-based; details: Homo sapiens, NCI-H727; for viability at 25 µM: measured at 25 μM after 48 h, single dose, triplicate, read-out: % of Survival
Method: as §1, §2

HaCat keratinocyte = assay: as above; type: cell-based; details: Homo sapiens; for viability at 25 µM: measured at 25 μM after 48 h, single dose, triplicate
Method: as §1, §2

[6] = tested on: panel of seven representative tumoral cell lines; assay: in vitro inhibition of cell proliferation, whole panel; type: cell-based; details: all cell lines of the panel, without selectivity; read-out: IC50, moderate antitumor activities in all cell lines of the panel
Method: as §1
as §2, with “The toxicity test of the compounds on these cells was as follows: 2 × 10^3 cells for HCT-116 cells or 4 × 10^3 for the other cells were seeded in 96 multiwell plates in triplicate and left for 24 h for attachment, spreading and growing. Then, cells were exposed for 48 h to increasing concentrations of the compounds, ranging from 0.1 to 25 μM in a final volume of 120 μL of culture medium.” left out

[7] = 48 h, average of three assays, standard error ± 0.5 μM

Compound `COc1ccc(/C=C2\SC(=S)N(CCCCNCc3ccc(OC)cc3)C2=O)cc1` [Compound 9b, (5Z)3-[4-(4-Methoxyphenylmethylamino)butyl]-5-(4-methoxybenzylidene)-2-thioxo-1,3-thiazolidin-4-one] has a melting point of 253 to 255 °C, a viability at 25 µM (diploid skin fibroblasts) of 167% and a viability at 25 µM [1] of 108%. For the same compound, the viability at 25 µM (MDA-MB231 cells) was 97%, the viability at 25 µM [2] was 105% and the viability at 25 µM [3] was 99%. The viability at 25 µM [4] was 102%, the viability at 25 µM [5] was 90% and the viability at 25 µM (HaCat keratinocyte) was 104%.

Compound `COc1ccc(CNCCCCN2C(=O)/C(=C/c3ccc(O)c(OC)c3)SC2=S)cc1` [Compound 9d, (5Z)3-[4-(4-Methoxyphenylmethylamino)butyl]-5-(4-hydroxy-3-methoxybenzylidene)-2-thioxo-1,3-thiazolidin-4-one] has a pIC50 [6] of 4.77 to 5.00, a melting point of 191 to 193 °C and a pIC50 (diploid skin fibroblasts; [7]) of under 4.60. For the same compound, the viability at 25 µM (diploid skin fibroblasts) was 29%, the pIC50 [1, 7] was 4.82 and the viability at 25 µM [1] was 23%. For the same compound, the pIC50 (MDA-MB231 cells; MDA-MB-231, 48 h, average of three assays, standard error ± 0.5 μM) was 4.96, the viability at 25 µM (MDA-MB231 cells) was 15% and the pIC50 ([2]; Huh-7D12, 48 h, average of three assays, standard error ± 0.5 μM) was 5.00. For the same compound, the viability at 25 µM [2] was 7%, the pIC50 ([3]; PC-3, 48 h, average of three assays, standard error ± 0.5 μM) was 4.77 and the viability at 25 µM [3] was 41%. The pIC50 [4, 7] was 5.00, the viability at 25 µM [4] was 1% and the pIC50 [5, 7] was 5.00. It also gave a viability at 25 µM [5] of 11%, a pIC50 (HaCat keratinocyte; HaCaT, 48 h, average of three assays, standard error ± 0.5 μM) of 5.00 and a viability at 25 µM (HaCat keratinocyte) of 2%.

`Cl.NCCCCNCc1ccccc1` [Compound 6a, N-1-Phenylmethyl-butane-1,4-diamine hydrochloride] showed a melting point of over 260 °C, a viability at 25 µM (diploid skin fibroblasts) of 93% and a viability at 25 µM [1] of 114%. The viability at 25 µM (MDA-MB231 cells) was 104%, the viability at 25 µM [2] was 102% and the viability at 25 µM [3] was 100%. The viability at 25 µM [4] was 112%, the viability at 25 µM [5] was 97% and the viability at 25 µM (HaCat keratinocyte) was 97%.

Work on `COc1ccc(CNCCCCN2C(=O)/C(=C/c3ccc4c(c3)OCCO4)SC2=S)cc1` [Compound 9c, (5Z)3-[4-(4-Methoxyphenylmethylamino)butyl]-5-(2,3-dihydro-1,4-benzodioxin-6-ylmethylene)-2-thioxo-1,3-thiazolidin-4-one] yielded a melting point of 255 to 261 °C, a viability at 25 µM (diploid skin fibroblasts) of 102% and a viability at 25 µM [1] of 93%. The viability at 25 µM (MDA-MB231 cells) was 92%, the viability at 25 µM [2] was 88% and the viability at 25 µM [3] was 97%. The viability at 25 µM [4] was 97%, the viability at 25 µM [5] was 95% and the viability at 25 µM (HaCat keratinocyte) was 101%.
